Laboratory results: patent publication US9238697B2, “Polymeric materials and methods” (The Regents of the University of California, priority 2005, dated 2016)
Non-standard residues stand in square brackets, D forms with d. Residues, ends and D or L forms follow the SMILES beside them. ξ: configuration not given here. *: point of attachment. Boc = CC(C)(C)OC(=O)*; ξK = NCCCCC(N)C(=O)O

Assay: Solubility of peptide monomer
Format: physicochemical
Conditions: water, or water/solvent mixtures
Description: As described further below, Poly 1-3 were tested for gene delivery applications. As contemplated structures are highly adaptable, structural variations can be made with relative ease to optimize gene transfection levels while maintaining relatively low levels of cytotoxicity. Initial manipulations were performed involving lengthening the peptidyl monomer sequence with additional L-lysine residues to thereby increase the charge density of the polymer overall and to thereby offer stronger DNA binding. It should be recognized that where increased charge density improves the gene transfectability of the polymer system, more residues can be added until an optimal length is found. […] For this reason, solution phase polymerizations were attempted to yield small polymer chains and cyclic structures. One example of cyclic structures is given in Structure VI below.

- solubility: insoluble
SMILES: COC(=O)[C@H](CCCCN)NC(=O)C(CCCCNC(=O)OC(C)(C)C)NC(=O)C(CCCCNC(=O)OC(C)(C)C)NC(=O)C(CCCCNC(=O)OC(C)(C)C)NC(=O)[C@H](CCCCN)NC(=O)OC(C)(C)C (stereo partly shown) [pentalysine monomer] (Boc-K[ξK](Boc)[ξK](Boc)[ξK](Boc)K-OMe)
